Numbering of substitutions follows the chain as printed.
Experiments:
Format in all cases: cell-based
[1] = target: T1, α-Gal A mutant form W204G (Homo sapiens, UniProt P06280, W204G); test: α-Gal A activity in lysates of transfected HEK-293 cells, W204G
T1 construct: expressed in transfected cells; host or cells: HEK-293
T1 sequence (P06280 32-429 W204G): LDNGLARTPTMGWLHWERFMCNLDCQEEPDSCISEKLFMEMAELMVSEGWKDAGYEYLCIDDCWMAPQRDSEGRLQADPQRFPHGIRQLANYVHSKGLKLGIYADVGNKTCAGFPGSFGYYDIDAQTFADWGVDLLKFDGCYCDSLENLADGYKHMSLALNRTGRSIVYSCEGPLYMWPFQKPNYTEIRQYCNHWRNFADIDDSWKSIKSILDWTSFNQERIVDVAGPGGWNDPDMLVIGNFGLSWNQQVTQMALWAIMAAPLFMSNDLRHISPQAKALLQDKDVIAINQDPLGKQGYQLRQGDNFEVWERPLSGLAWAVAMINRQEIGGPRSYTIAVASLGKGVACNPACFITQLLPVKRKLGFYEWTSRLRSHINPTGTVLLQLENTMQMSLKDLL
Protocol: (§1) Baseline and 10 μM migalastat α-Gal A activity: Differences in the α-Gal A activity between lysates incubated in the absence and presence of 10 μM migalastat were determined using a one-tailed, Mann Whitney U test; an increase at 10 μM migalastat with a p<0.05 was considered significant.
(§2) 10 μM migalastat α-Gal A activity (% WT)=(α-Gal A activity in mutant transfected cell lysates incubated with 10 μM migalastat÷α-Gal A activity in wild-type transfected cell lysates without migalastat)*100.
(§3) Absolute increase (% WT)=is the 10 μM migalastat α-Gal A activity (% WT) minus the baseline α-Gal A activity (% WT).
(§4) Relative increase is the 10 μM migalastat α-Gal A activity in mutant transfected cell lysates÷baseline α-Gal A activity in mutant transfected cell lysates incubated without migalastat.

[2] = target: T2, α-Gal A mutant form P259Q (Homo sapiens, UniProt P06280, P259Q); test: α-Gal A activity in lysates of transfected HEK-293 cells, P259Q
T2 construct: expressed in transfected cells; host or cells: HEK-293
T2 sequence (P06280 32-429 P259Q): T1 sequence (P06280 32-429 W204G) with G173W, P228Q
Protocol: as §1, §2, §3, §4

[3] = target: T3, α-Gal A mutant form Q250K (Homo sapiens, UniProt P06280, Q250K); test: α-Gal A activity in lysates of transfected HEK-293 cells, Q250K
T3 construct: expressed in transfected cells; host or cells: HEK-293
T3 sequence (P06280 32-429 Q250K): T1 sequence (P06280 32-429 W204G) with G173W, Q219K
Protocol: as §1, §2, §3, §4

[4] = target: T4, α-Gal A mutant form A257V (Homo sapiens, UniProt P06280, A257V); test: α-Gal A activity in lysates of transfected HEK-293 cells, A257V
T4 construct: expressed in transfected cells; host or cells: HEK-293
T4 sequence (P06280 32-429 A257V): T1 sequence (P06280 32-429 W204G) with G173W, A226V
Protocol: as §1, §2, §3, §4

[5] = target: T5, α-Gal A mutant form Q330P (Homo sapiens, UniProt P06280, Q330P); test: α-Gal A activity in lysates of transfected HEK-293 cells, Q330P
T5 construct: expressed in transfected cells; host or cells: HEK-293
T5 sequence (P06280 32-429 Q330P): T1 sequence (P06280 32-429 W204G) with G173W, Q299P
Protocol: as §1, §2, §3, §4

[6] = HEK-293 lysates, 10 μM migalastat, 5 days, mean ± SEM
[7] = 10 μM migalastat minus baseline
[8] = 10 μM migalastat ÷ baseline activity

OC[C@H]1NC[C@H](O)[C@@H](O)[C@H]1O [migalastat, (2R,3S,4R,5S)-2-(hydroxymethyl) piperdine-3,4,5-triol]
Absolute increase (% WT) ([1]; 10 μM migalastat minus baseline (baseline BLD)): 6.5 % WT
10 nM migalastat α-Gal A activity ([1]; HEK-293 lysates, 10 nM migalastat as printed, 5 days, mean ± SEM, baseline BLD): 1695 ± 198 nmol/mg/h
10 μM migalastat α-Gal A activity (% WT) [1, 6]: 6.5 ± 0.7 % WT
Absolute increase (% WT) [2, 7]: 36.1 % WT
Relative increase [2, 8]: 1.90
10 μM migalastat α-Gal A activity [2, 6]: 25935 ± 2020 nmol/mg/h
10 μM migalastat α-Gal A activity (% WT) [2, 6]: 73.6 ± 5.0 % WT
Absolute increase (% WT) [3, 7]: 25.5 % WT
Relative increase [3, 8]: 2.58
10 nM migalastat α-Gal A activity ([3]; HEK-293 lysates, 10 nM migalastat as printed, 5 days, mean ± SEM): 11325 ± 1111 nmol/mg/h
10 μM migalastat α-Gal A activity (% WT) [3, 6]: 41.6 ± 3.1 % WT
Absolute increase (% WT) [4, 7]: 44.4 % WT
Relative increase [4, 8]: 1.85
10 μM migalastat α-Gal A activity [4, 6]: 30313 ± 1981 nmol/mg/h
10 μM migalastat α-Gal A activity (% WT) [4, 6]: 99.9 ± 4.6 % WT
Absolute increase (% WT) [5, 7]: 24.4 % WT
Relative increase [5, 8]: 2.21
10 μM migalastat α-Gal A activity [5, 6]: 12375 ± 664 nmol/mg/h
10 μM migalastat α-Gal A activity (% WT) [5, 6]: 45.8 ± 1.9 % WT

— patent publication US12594268B2, “Methods of treating Fabry disease in patients having a mutation in the GLA gene” (Amicus Therapeutics, Inc., priority 2018, dated 2026)
